≈ marks a conversion by molar mass, not a printed value. Read-outs that look alike come from different tables or passages of the source. Where a SMILES comes first, the peptide text is derived from it. Bridges are numbered along the chain shown (N, C = ends). [ ]: non-standard residue; d: D form. The star is where a group is joined. Isoxazole(3-CO,5-Ph) = O=C(c1cc(-c2ccccc2)on1)*; X55 = O=C(c1ccc(-c2ccc(Cl)nc2)cc1)*; X35 = O=C(c1cc(-c2ccc(Cl)cc2)on1)*; X19 = O=C(c1ncc(C(F)(F)F)cc1Cl)*; X21 = O=C(c1cnc(Cl)cc1Cl)*; X1 = O=C(c1ncc(Cl)cc1Cl)*; dNva = CCC[C@@H](N)C(=O)O; X29 = O=C(c1cc(Cl)ccn1)*; Dab = NCC[C@H](N)C(=O)O; Abu = CC[C@H](N)C(=O)O; Dap = NC[C@H](N)C(=O)O
Key:
Type in all cases: cell-based
[1] = system: Pseudomonas aeruginosa FADDI-PA022
Method in brief: (§1)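 Lipopeptide TFA salts were serially diluted in cation-adjusted Mueller-Hinton broth, inoculated with polymyxin-susceptible Gram-negative bacteria and scored for MIC according to CLSI guidance (M100-S24). Polymyxin B sulphate was included as comparator.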

[2] = system: Pseudomonas aeruginosa FADDI-PA01
Method in brief: as §1

[3] = system: Acinetobacter baumannii FADDI-AB034
Method in brief: as §1

[4] = system: Pseudomonas aeruginosa FADDI-PA038
Method in brief: as §1

[5] = system: Pseudomonas aeruginosa ATCC 27853
Method in brief: as §1

[6] = system: Klebsiella pneumoniae FADDI-KP032
Method in brief: as §1

[7] = system: Enterobacter cloacae FADDI-EC001
Method in brief: (§2)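 Following CLSI procedure M100-S24, minimum inhibitory concentrations of trifluoroacetate lipopeptides are measured in cation-adjusted Mueller-Hinton medium by broth microdilution, alongside a polymyxin B sulphate control.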

[8] = system: Enterobacter cloacae FADDI-EC003
Method in brief: as §1

[9] = system: Klebsiella pneumoniae Kp BM1
Method in brief: as §2

[10] = system: Acinetobacter baumannii ATCC 17978
Method in brief: as §1

[11] = system: Enterobacter cloacae FADDI-EC006
Method in brief: as §1

[12] = system: Klebsiella pneumoniae FADDI-KP022
Method in brief: as §1

[13] = system: Acinetobacter baumannii FADDI-AB030; test: microbe, parasite or virus in culture
Method in brief: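 Lipopeptide TFA salts tested against the multidrug-resistant clinical isolate by CLSI (M100-S24) broth microdilution in cation-adjusted Mueller-Hinton broth, with polymyxin B sulphate as control; MIC read.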

Compound	Minimum inhibitory concentration ([1]; FADDI-PA022) [µg/mL]	Minimum inhibitory concentration ([2]; FADDI-) [µg/mL]	Minimum inhibitory concentration ([3]; FADDI-AB034) [µg/mL]	Minimum inhibitory concentration ([4]; FADDI-PA038) [µg/mL]	Minimum inhibitory concentration ([5]; ATCC 27853) [µg/mL]	Minimum inhibitory concentration ([6]; FADDI-KP032) [µg/mL]	Minimum inhibitory concentration ([7]; FADDI-EC001) [µg/mL]	Minimum inhibitory concentration ([8]; FADDI-EC003) [µg/mL]	Minimum inhibitory concentration ([9]; Kp BM1) [µg/mL]	Minimum inhibitory concentration ([10]; ATCC 17978) [µg/mL]	Minimum inhibitory concentration ([11]; FADDI-EC006) [µg/mL]	Minimum inhibitory concentration ([12]; FADDI-KP022) [µg/mL]	Minimum inhibitory concentration ([13]; FADDI-AB030) [µg/mL]	further results
CC[C@@H]1NC(=O)[C@@H](CC(C)C)NC(=O)[C@H](CCN)NC(=O)[C@@H](NC(=O)[C@H](CN)NC(=O)[C@@H](NC(=O)[C@H](CCN)NC(=O)c2cnc(Cl)cc2Cl)[C@@H](C)O)CCNC(=O)[C@H]([C@@H](C)O)NC(=O)[C@H](CCN)NC(=O)[C@H](CCN)NC1=O [Compound 2] (X21-[Dab]T[Dap][Dab][Dab][dL][Abu][Dab][Dab]T; lactam 4-C)	0.5 (≈ 0.431 µM)	0.5 (≈ 0.431 µM)	8 (≈ 6.89 µM)	1 (≈ 0.861 µM)	0.5 (≈ 0.431 µM)	0.5 (≈ 0.431 µM)	0.25 (≈ 0.215 µM)	2 (≈ 1.72 µM)	0.5 (≈ 0.431 µM)	8 (≈ 6.89 µM)	2 (≈ 1.72 µM)	<0.125	2 (≈ 1.72 µM)	–
CC[C@@H]1NC(=O)[C@@H](CC(C)C)NC(=O)[C@H](CCN)NC(=O)[C@@H](NC(=O)[C@H](CN)NC(=O)[C@@H](NC(=O)[C@H](CCN)NC(=O)c2cc(-c3ccc(Cl)cc3)on2)[C@@H](C)O)CCNC(=O)[C@H]([C@@H](C)O)NC(=O)[C@H](CCN)NC(=O)[C@H](CCN)NC1=O [Compound 94] (X35-[Dab]T[Dap][Dab][Dab][dL][Abu][Dab][Dab]T; lactam 4-C)	0.5 (≈ 0.419 µM)	0.5 (≈ 0.419 µM)	0.5 (≈ 0.419 µM)	1 (≈ 0.838 µM)	0.5 (≈ 0.419 µM)	<0.125	0.25 (≈ 0.21 µM)	0.25 (≈ 0.21 µM)	0.5 (≈ 0.419 µM)	1 (≈ 0.838 µM)	<0.125	<0.125	0.25 (≈ 0.21 µM)	–
CC(C)C[C@H]1NC(=O)[C@H](CCN)NC(=O)[C@@H](NC(=O)[C@H](CN)NC(=O)[C@@H](NC(=O)[C@H](CCN)NC(=O)c2ccc(-c3ccc(Cl)nc3)cc2)[C@@H](C)O)CCNC(=O)[C@H]([C@@H](C)O)NC(=O)[C@H](CCN)NC(=O)[C@H](CCN)NC(=O)[C@H]([C@@H](C)O)NC1=O [Compound 16] (X55-[Dab]T[Dap][Dab][Dab][dL]T[Dab][Dab]T; lactam 4-C)	1 (≈ 0.82 µM)	0.5 (≈ 0.41 µM)	4 (≈ 3.28 µM)	1 (≈ 0.82 µM)	0.5 (≈ 0.41 µM)	0.25 (≈ 0.205 µM)	0.5 (≈ 0.41 µM)	<0.125	2 (≈ 1.64 µM)	2 (≈ 1.64 µM)	0.5 (≈ 0.41 µM)	<0.125	8 (≈ 6.56 µM)	–
Polymyxin B [reference compound]	–	–	–	–	–	–	–	–	–	–	–	–	–	Minimum inhibitory concentration ([1]; P. aeruginosa FADDI-PA022, CAMHB broth microdilution): 1 µg/mL; Minimum inhibitory concentration ([2]; P. aeruginosa FADDI-PA01, CAMHB broth microdilution): 0.5 µg/mL; Minimum inhibitory concentration ([3]; A. baumannii FADDI-AB034, CAMHB broth microdilution): 0.5 µg/mL; Minimum inhibitory concentration ([4]; P. aeruginosa FADDI-PA038, CAMHB broth microdilution): 1 µg/mL; Minimum inhibitory concentration ([5]; P. aeruginosa ATCC 27853, CAMHB broth microdilution): 1 µg/mL; Minimum inhibitory concentration ([6]; K. pneumoniae FADDI-KP032, CAMHB broth microdilution): <0.125 µg/mL; Minimum inhibitory concentration ([7]; E. cloacae FADDI-EC001, CAMHB broth microdilution): 0.25 µg/mL; Minimum inhibitory concentration ([8]; E. cloacae FADDI-EC003, CAMHB broth microdilution): 0.5 µg/mL; Minimum inhibitory concentration ([9]; K. pneumoniae Kp BM1, CAMHB broth microdilution): 0.5 µg/mL; Minimum inhibitory concentration ([10]; A. baumannii ATCC 17978, CAMHB broth microdilution): 1 µg/mL; Minimum inhibitory concentration ([11]; E. cloacae FADDI-EC006, CAMHB broth microdilution): 0.5 µg/mL; Minimum inhibitory concentration ([12]; K. pneumoniae FADDI-KP022, CAMHB broth microdilution): <0.125 µg/mL; Minimum inhibitory concentration ([13]; A. baumannii FADDI-AB030, CAMHB broth microdilution): 0.25 µg/mL; Minimum inhibitory concentration ([13]; clinically used antibiotics, clinical isolate A. baumannii FADDI-AB030): 0.25 µg/mL
CC(C)C[C@H]1NC(=O)[C@H](CCN)NC(=O)[C@@H](NC(=O)[C@H](CN)NC(=O)[C@@H](NC(=O)[C@H](CCN)NC(=O)c2ncc(Cl)cc2Cl)[C@@H](C)O)CCNC(=O)[C@H]([C@@H](C)O)NC(=O)[C@H](CCN)NC(=O)[C@H](CCN)NC(=O)[C@H]([C@@H](C)O)NC1=O [Compound 8] (X1-[Dab]T[Dap][Dab][Dab][dL]T[Dab][Dab]T; lactam 4-C)	0.5 (≈ 0.425 µM)	0.5 (≈ 0.425 µM)	4 (≈ 3.4 µM)	0.5 (≈ 0.425 µM)	0.25 (≈ 0.212 µM)	0.5 (≈ 0.425 µM)	<0.125	0.25 (≈ 0.212 µM)	0.5 (≈ 0.425 µM)	4 (≈ 3.4 µM)	0.25 (≈ 0.212 µM)	<0.125	4 (≈ 3.4 µM)	–
CC[C@@H]1NC(=O)[C@@H](CC(C)C)NC(=O)[C@H](CCN)NC(=O)[C@@H](NC(=O)[C@H](CN)NC(=O)[C@@H](NC(=O)[C@H](CCN)NC(=O)c2ncc(C(F)(F)F)cc2Cl)[C@@H](C)O)CCNC(=O)[C@H]([C@@H](C)O)NC(=O)[C@H](CCN)NC(=O)[C@H](CCN)NC1=O [Compound 35] (X19-[Dab]T[Dap][Dab][Dab][dL][Abu][Dab][Dab]T; lactam 4-C)	0.5 (≈ 0.419 µM)	0.25 (≈ 0.209 µM)	0.25 (≈ 0.209 µM)	0.5 (≈ 0.419 µM)	0.25 (≈ 0.209 µM)	<0.125	<0.125	<0.125	<0.125	0.25 (≈ 0.209 µM)	<0.125	<0.125	<0.125	–
CCC[C@H]1NC(=O)[C@H](CCN)NC(=O)[C@@H](NC(=O)[C@H](CN)NC(=O)[C@@H](NC(=O)[C@H](CCN)NC(=O)c2cc(Cl)ccn2)[C@@H](C)O)CCNC(=O)[C@H]([C@@H](C)O)NC(=O)[C@H](CCN)NC(=O)[C@H](CCN)NC(=O)[C@H](CC)NC1=O [Compound 96] (X29-[Dab]T[Dap][Dab][Dab][dNva][Abu][Dab][Dab]T; lactam 4-C)	0.25 (≈ 0.225 µM)	0.25 (≈ 0.225 µM)	1 (≈ 0.899 µM)	1 (≈ 0.899 µM)	0.25 (≈ 0.225 µM)	0.5 (≈ 0.449 µM)	0.25 (≈ 0.225 µM)	0.5 (≈ 0.449 µM)	1 (≈ 0.899 µM)	1 (≈ 0.899 µM)	0.5 (≈ 0.449 µM)	0.25 (≈ 0.225 µM)	2 (≈ 1.8 µM)	–
CC[C@@H]1NC(=O)[C@@H](CC(C)C)NC(=O)[C@H](CCN)NC(=O)[C@@H](NC(=O)[C@H](CN)NC(=O)[C@@H](NC(=O)[C@H](CCN)NC(=O)c2cc(-c3ccccc3)on2)[C@@H](C)O)CCNC(=O)[C@H]([C@@H](C)O)NC(=O)[C@H](CCN)NC(=O)[C@H](CCN)NC1=O [Compound 80] ({Isoxazole(3-CO,5-Ph)}-[Dab]T[Dap][Dab][Dab][dL][Abu][Dab][Dab]T; lactam 4-C)	0.5 (≈ 0.432 µM)	0.5 (≈ 0.432 µM)	0.5 (≈ 0.432 µM)	0.5 (≈ 0.432 µM)	0.5 (≈ 0.432 µM)	0.25 (≈ 0.216 µM)	0.25 (≈ 0.216 µM)	0.25 (≈ 0.216 µM)	0.25 (≈ 0.216 µM)	0.5 (≈ 0.432 µM)	0.25 (≈ 0.216 µM)	<0.125	0.5 (≈ 0.432 µM)	–

Reference: patent US11225505B2, “Antimicrobial polymyxin derivative compounds” (MONASH UNIVERSITY, priority 2015, dated 2022)
